Data published in patent US4269717A, “Boiler additives for oxygen scavenging” (priority 1980, dated 1981).
Like-named read-outs stand apart in the source and are kept apart here.

Format: physicochemical
Conditions: for Final Hydrazine Level / Percent Hydrolysis: fed at 100 ppm, pH 8.0, 600 p.s.i.
Text: High temperature hydrolysis studies were next carried out again using reagent grade carbohydrazide containing approximately 2% hydrazine as an impurity. The apparatus used in this work was the once-through experimental apparatus for simulating boiler water transport referred to in Example 2, with feedwater pH set at 8.0 and system pressure at 600 p.s.i.
^1 Carbohydrazide was fed at 100 ppm; complete hydrolysis of the
carbohydrazide would theoretically yield 71.1 ppm N2 H4.

[1] = 282 °F., residence time 14.5 min
[2] = 343 °F., residence time 14.5 min
[3] = 400 °F., residence time 14.5 min
[4] = 400 °F., residence time 15.0 min

## NNC(=O)NN [Carbohydrazide, N, N' diaminourea]
220° F.
  Hydrolysis at 220° F.: minimal
282° F.
  Hydrolysis at 282° F.: minimal
[1]
  Final Hydrazine Level: 7 ppm
  Percent Hydrolysis: 7.0%
340° F. through 400° F.
  Hydrolysis at 340° F. through 400° F.: still not complete
[2]
  Final Hydrazine Level: 45 ppm
  Percent Hydrolysis: 60.5%
[3]
  Final Hydrazine Level: 59 ppm
  Percent Hydrolysis: 80.2%
[4]
  Final Hydrazine Level: 61 ppm
  Percent Hydrolysis: 83.0%
About 220° F.
  Hydrazine found: less than 7%
Residence time 14.5 min
  Percent Hydrolysis: 0%
Temperature 21 °F. (so in the source), residence time 14.5 min
  Final Hydrazine Level: 2 ppm
